Values of other authors, collected in US20140314729A1, “NUTRACEUTICAL FORMULATION FOR TREATMENT OF ELEVATED CHOLESTEROL AND CARDIOVASCULAR DISEASE” (Creative Medical Health Inc., priority 2013, published 2014).

How the values were obtained:
[1] = test system: patients with type 2 diabetes; settings: oral 200 mg/day for 12 weeks
mouse model = settings: 150 mg/kg body weight for 10 days
volunteers = settings: 1.6 mg daily, 42-day period
HIV-positive subjects = settings: 1000 µg/day for eight weeks
[2] = test system: streptozotocin-treated rats; settings: 80 μg/kg body weight daily for two weeks; P<0.001

Question: With `COC1=C(OC)C(=O)C(C/C=C(\C)CC/C=C(\C)CC/C=C(\C)CC/C=C(\C)CC/C=C(\C)CC/C=C(\C)CC/C=C(\C)CC/C=C(\C)CC/C=C(\C)CCC=C(C)C)=C(C)C1=O` [coenzyme Q10] as the molecule, how does the “brachial artery flow-mediated dilation” value [1] read?
Answer: The value was “increased”.

Question: With `CC(C)(COP(=O)(O)O)[C@@H](O)C(=O)NCCC(=O)O` [phosphopantothenate] as the molecule, how does the “content of triglycerides, total cholesterol and cholesterol esters in serum and adipose tissue” value (mouse model) read?
Answer: The value was “decreased”.

Question: What does the source list for chromium picolinate?
Answer: decrease in LDL cholesterol (volunteers): 10.5%; decrease in total cholesterol (volunteers): 7%; LDL cholesterol after treatment (volunteers; from 200): 178 mg per dl; total cholesterol after treatment (volunteers; from 276): 256 mg per dl; increase of mean rate of glucose disposal (HIV-positive subjects): 25%; mean rate of glucose disposal after treatment (HIV-positive subjects; from 4.41, range 3.19-12.78, p=0.03): 6.51 mg/kg LBM/min; average lowering of blood glucose compared with high-fat diet alone [2]: 63%; lowering of total cholesterol compared with high-fat diet alone [2]: 9.7%; lowering of triglycerides compared with high-fat diet alone [2]: 6.6%
